Data from paper PMC9410468 (Marine Drugs, 2022).

How the values were obtained:
rα6/α3β4 nAChR = assay type: cell-based, rat
RAW264.7 cells [1] = assay type: cell-based, mouse
rα3β4 nAChR = rα3β4 nAChR (Rattus norvegicus, UniProt P04757+P12392); assay type: cell-based
RAW264.7 cells [2] = assay type: cell-based, mouse; remark: listed apart in the source
[3] = in vivo; cited from earlier work
α3β4 nAChR = details: cited from earlier work

Chain of rα3β4 nAChR (P04757 26-499 limits assumed): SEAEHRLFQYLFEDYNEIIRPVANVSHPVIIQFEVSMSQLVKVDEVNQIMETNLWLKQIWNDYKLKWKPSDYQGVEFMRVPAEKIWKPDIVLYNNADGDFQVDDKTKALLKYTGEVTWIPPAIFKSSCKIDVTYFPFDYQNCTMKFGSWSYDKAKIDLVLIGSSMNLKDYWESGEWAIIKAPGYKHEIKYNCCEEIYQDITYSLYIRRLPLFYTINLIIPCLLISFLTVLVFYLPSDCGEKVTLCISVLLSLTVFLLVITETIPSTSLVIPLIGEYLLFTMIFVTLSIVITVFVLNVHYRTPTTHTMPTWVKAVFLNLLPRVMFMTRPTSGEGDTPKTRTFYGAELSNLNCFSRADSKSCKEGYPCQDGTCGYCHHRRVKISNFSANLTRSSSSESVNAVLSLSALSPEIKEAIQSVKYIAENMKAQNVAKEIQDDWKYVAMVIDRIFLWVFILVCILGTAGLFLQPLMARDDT
Chain of rα3β4 nAChR (P12392 21-495 limits assumed): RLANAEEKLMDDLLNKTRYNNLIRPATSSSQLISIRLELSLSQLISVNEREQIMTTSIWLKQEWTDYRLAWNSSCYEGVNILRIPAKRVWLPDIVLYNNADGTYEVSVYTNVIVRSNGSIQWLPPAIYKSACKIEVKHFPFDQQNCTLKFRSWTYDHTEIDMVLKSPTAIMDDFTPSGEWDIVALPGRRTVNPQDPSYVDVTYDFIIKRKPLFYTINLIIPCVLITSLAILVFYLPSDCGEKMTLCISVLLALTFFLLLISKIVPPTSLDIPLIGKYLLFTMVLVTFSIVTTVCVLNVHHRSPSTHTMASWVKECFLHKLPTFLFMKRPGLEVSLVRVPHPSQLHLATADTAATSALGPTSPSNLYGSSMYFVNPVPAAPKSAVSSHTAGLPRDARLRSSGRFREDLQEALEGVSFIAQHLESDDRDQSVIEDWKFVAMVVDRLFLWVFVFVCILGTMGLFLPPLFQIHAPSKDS

| SMILES | inhibitory activity at rα6/α3β4 (in words) (rα6/α3β4 nAChR) | fluorescence intensity, flow cytometry (in words) (RAW264.7 cells [1]) | Hill Slope (rα3β4 nAChR) | change of IC50 compared with WT TxID (rα3β4 nAChR) | inhibitory activity at rα3β4 (in words) (rα3β4 nAChR) | potency at α3β4 compared with native TxID (in words) (rα3β4 nAChR) | red fluorescence labelling of cells (in words) (RAW264.7 cells [2]) | anti-nicotine addiction effect (in words) [3] | IC50 (α3β4 nAChR) |
| --- | --- | --- | --- | --- | --- | --- | --- | --- | --- |
| CC[C@H](C)[C@@H]1NC(=O)[C@@H]2CCCN2C(=O)[C@H](CO)NC(=O)[C@H](CCSC)NC(=O)[C@H](C)NC(=O)[C@H](CO)NC(=O)[C@@H]2CSSC[C@H](NC(=O)CNC(=O)c3ccc(-c4c5ccc(=[N+](C)C)cc-5oc5cc(N(C)C)ccc45)c(C(=O)[O-])c3)C(=O)N[C@@H](CSSC[C@@H](C(N)=O)NC1=O)C(=O)N[C@@H](CO)C(=O)N[C@@H](Cc1c[nH]cn1)C(=O)N1CCC[C@H]1C(=O)N[C@@H](C(C)C)C(=O)N2 [TxID-F] | followed with the rα6/α3β4 subtype | strong fluorescence intensity | 0.8 (0.7–0.9) | 3 fold | most inhibitory activity | maintained the same order of potency | red fluorescence signal was observed on the RAW264.7 cells | – | – |
| CC[C@H](C)[C@@H]1NC(=O)[C@@H]2CCCN2C(=O)[C@H](CO)NC(=O)[C@H](CCSC)NC(=O)[C@H](C)NC(=O)[C@H](CO)NC(=O)[C@@H]2CSSC[C@H](NC(=O)CN)C(=O)N[C@@H](CSSC[C@@H](C(N)=O)NC1=O)C(=O)N[C@@H](CO)C(=O)N[C@@H](Cc1c[nH]cn1)C(=O)N1CCC[C@H]1C(=O)N[C@@H](C(C)C)C(=O)N2 [TxID] | – | – | 0.6 (0.5–0.7) | – | – | – | – | anti-nicotine addiction effect | […] |
